Results on one compound are retold here after patent US20240174692A1, “PYRIMIDINE AROMATIC RING COMPOUNDS” (Medshine Discovery Inc., priority 2021, published 2024).

Data set [1] deals with p-ERK in GP2D cells. As to the kind of experiment: Assay of p-ERK inhibition in GP2D cells (HTRF). It counts as cell-based. Conditions: Homo sapiens, 1 hour incubation. On the procedure:
2. Assay Process • 1) GP2D cells were inoculated in a transparent 96-well cell culture plate, and each well contained 80 μL of cell suspension and 8000 cells. The cell plate was inoculated in a carbon dioxide incubator at 37° C. overnight; • 2) 2 μL of the compound was weighed and added to 78 μL of the cell medium. After the mixture was mixed thoroughly, 20 μL of the solution of compound was weighed and added to the corresponding well of the cell plate. The cell plate was placed back to the carbon dioxide incubator and incubated for another 1 hour; • 3) After completion of the incubation, the cell supernatant was discarded. 50 μL of 1× cell lysate was added to each well. The mixture was incubated with shaking at room temperature for 30 minutes; • 4) Phospho-ERK1/2 Eu Cryptate antibody and Phospho-ERK1/2 d2 antibody were diluted 20-fold with detection buffer; • 5) 16 μL of cell lysate supernatant was weighed and added into each well of a new 384 white microwell plate, and then 2 μL of the diluted solution of Phospho-ERK1/2 Eu Cryptate antibody and 2 μL of the diluted solution of Phospho-ERK1/2 d2 antibody dilution were added. The mixture was incubated at room temperature for at least 4 hours; • 6) After completion of the incubation, HTRF was read with multi-label analyzer: excitation: 320 nm, emission: 615 nm, 665 nm; • 7). IC50 of the compounds to be assayed was calculated.
On the technique in general: Time-resolved FRET reads energy transfer from a long-lived donor to a nearby acceptor.

Data set [2] concerns plasma protein. As to the kind of experiment: Plasma protein binding (PPB), equilibrium dialysis, C plasma. Conditions: 2 μM, 4 hr dialysis. It counts as in vitro ADME, monkey. The protocol: (§1) Assay procedure: 995 μL of blank plasma of various genera were weighed, and 5 μL of assay compound working solution (400 μM) or warfarin working solution (400 μM) was added so that the final concentrations of the assay compound and warfarin in plasma sample were each 2 μM. The samples were mixed thoroughly. The final concentration of DMSO (the organic phase) was 0.5%. 50 μL of the plasma samples of the assay compound and warfarin were pipetted to a sample receiving plate (in triplicate), and the corresponding volume of corresponding blank plasma or buffer was added immediately, so that the final volume in each sample well was 100 μL, wherein the volume ratio of plasma:dialysis buffer was 1:1. 500 μL of stop solution was then added to these samples. These samples were used as T0 samples for determination of recovery and stability. […] All samples were subjected to protein precipitation, and then analyzed by LC/MS/MS. Bound rate and recovery rate of protein were calculated using the following formulae: % Unbound=100*F/T % Bound=100−% Unbound, % Recovery=100*(F+T)/T0 (wherein F is the peak area ratio of the compound in the dialysate after 4 h of dialysis; T is the peak area ratio of the compound in the plasma after 4 h of dialysis; T0 is the peak area ratio of the compound in the plasma sample at time zero).

Data set [3] in a line: Pharmacokinetic evaluation of compounds in mice. It counts as in vivo, CD-1 mice. Conditions: CD-1 male mice. On the procedure:
Purpose of assay: To assay the pharmacokinetic data of the compounds in CD-1 mice in vivo.
Compounds were mixed with vehicle 5% DMSO/95% (10% HP-β-CD aqueous solution), and the mixture was vortexed and sonicated to give 0.2 mg/mL-0.3 mg/mL clear solutions. CD-1 male mice aged 7 to 10 weeks were selected, and the candidate compound solution was administered intravenously. Whole blood was collected for a certain period of time to prepare the plasma. The drug concentration was analyzed by LC-MS/MS method and pharmacokinetic parameters were calculated by Phoenix WinNonlin software (Pharsight, USA).
Compounds were mixed with vehicle 5% DMSO/95% (10% HP-β-CD in water), and the mixture was vortexed and sonicated to give 1.6 mg/mL to 4.0 mg/mL clear solutions. CD-1 male mice aged 7 to 10 weeks were selected, and the candidate compound solution was orally administered. Whole blood was collected for a certain period of time to prepare plasma. The drug concentration was analyzed by LC-MS/MS method, and pharmacokinetic parameters were calculated by Phoenix WinNonlin software (Pharsight, USA).

In data set [4] the test system is plasma protein. Briefly: Plasma protein binding (PPB), equilibrium dialysis, D plasma. It counts as in vitro ADME, dog. Conditions: 2 μM, 4 hr dialysis. The protocol: as §1

The structures appear in SMILES notation.

What is called IC50 is the point on the concentration scale where inhibition reaches its midpoint. A higher IC50 goes with weaker potency. What is called AUC(0-inf) is total exposure, with the tail of the curve extrapolated. Lower therefore signals low exposure. Usually Vd stands for a proportionality between amount in the body and measured concentration, not a real space. Read a low Vd as little distribution into tissue. A word on the clearance: it is the rate of elimination divided by the concentration. For orientation: half-life means the time needed for the level to fall by half in the phase considered. A lower half-life goes with fast loss. The Cmax is the highest concentration seen after dosing. A word on the bioavailability: it is dose-corrected exposure relative to a reference, in per cent. `C#Cc1c(F)ccc2cc(N)cc(-c3ccc4c(N5CC6CCC(C5)N6)nc(OC[C@@]56CCCN5C[C@H](F)C6)nc4c3F)c12` [Compound 014] registered an IC50 in data set [1] of 0.43 nM. In addition, the “Unbound PPB C” value in data set [2] was determined as 2.8%. Moreover, in data set [3] (PO, 16.0 mg/kg, AUCu = AUC0-inf *Unbound PPB (Mouse)), the AUCu is 0.0671 µM·h. For the same compound, in data set [3] (mouse, plasma, IV, 1.28 mg/kg), the AUC(0-inf) is 0.565 µM·h, the C0 worked out at 953 nM, the Vd is 25.6 L/kg and the clearance was 77 mL/min/kg. Further, the half-life in data set [3] (mouse, plasma, IV, 1.28 mg/kg) was 5.7 h. In data set [3] (mouse, plasma, PO, 16.0 mg/kg), this compound gave a total exposure AUC(0-inf) of 1.49 µM·h, a Cmax of 524 nM, a bioavailability of 20.5% and a half-life of 6 h. Besides, the “Unbound PPB D” value in data set [4] is listed as 3.0%.
